Measured values reported in PubChem BioAssay (NCI).
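Each compound was tested at five concentrations against cells in 96-well plates for 48 hours. The concentration for 50% growth inhibition is given as GI50. TGI marks complete inhibition of growth.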

These compounds were tested on MCF7 breast (assay: NCI anticancer screen, dose series, 48 h).

Row | Compound | TGI [µM]
1 | CN(C)CCCN=c1c2ccccc2n(O)c2ccccc12 | > 100
2 | C=CCCC1(CC(Sc2ccccc2)P(=O)(c2ccccc2)c2ccccc2)OCCO1 (stereo not given) | > 10
3 | CCOC(=O)c1cc2c3ccn(Cc4ccccc4)c3c3c(C)[nH]oc3c2n1 | > 100
4 | Cc1ccc2c3c1O[C@H]1c4[nH]c5ccccc5c4C[C@@]4(O)[C@@H](C2)N(CC2CC2)CC[C@]314 | 31.5
5 | Nc1ccc(Cc2c(N)[nH]c(=O)[nH]c2=O)cc1 | > 100
6 | O=C1c2ccccc2C(=O)N1CCCCNOCCCN1C(=O)c2ccccc2C1=O | > 100

Each compound was assayed on 786-0 renal (assay: NCI anticancer screen, dose series, 48 h).

Row | Compound | TGI [µM]
7 | CN(C)CCCN=c1c2ccccc2n(O)c2ccccc12 | > 100
8 | C=CCCC1(CC(Sc2ccccc2)P(=O)(c2ccccc2)c2ccccc2)OCCO1 (stereo not given) | > 10
9 | CCOC(=O)c1cc2c3ccn(Cc4ccccc4)c3c3c(C)[nH]oc3c2n1 | > 100
10 | Cc1ccc2c3c1O[C@H]1c4[nH]c5ccccc5c4C[C@@]4(O)[C@@H](C2)N(CC2CC2)CC[C@]314 | 27.1
11 | Nc1ccc(Cc2c(N)[nH]c(=O)[nH]c2=O)cc1 | > 100
12 | O=C1c2ccccc2C(=O)N1CCCCNOCCCN1C(=O)c2ccccc2C1=O | > 100

Each compound was assayed on CCRF-CEM leukemia (assay: NCI anticancer screen, dose series, 48 h).

Row | Compound | TGI [µM]
13 | CCOC(=O)Cn1c(=O)ccn(COCCO)c1=O | > 100
14 | CN(C)CCCN=c1c2ccccc2n(O)c2ccccc12 | > 100
15 | C=CCCC1(CC(Sc2ccccc2)P(=O)(c2ccccc2)c2ccccc2)OCCO1 (stereo not given) | > 10
16 | CCOC(=O)c1cc2c3ccn(Cc4ccccc4)c3c3c(C)[nH]oc3c2n1 | > 100
17 | Cc1ccc2c3c1O[C@H]1c4[nH]c5ccccc5c4C[C@@]4(O)[C@@H](C2)N(CC2CC2)CC[C@]314 | 24.6
18 | Nc1ccc(Cc2c(N)[nH]c(=O)[nH]c2=O)cc1 | > 100
19 | O=C1c2ccccc2C(=O)N1CCCCNOCCCN1C(=O)c2ccccc2C1=O | > 100

Each compound was assayed on SK-MEL-5 melanoma (assay: NCI anticancer screen, dose series, 48 h).

Row | Compound | TGI [µM] | GI50 [µM]
20 | CCOC(=O)Cn1c(=O)ccn(COCCO)c1=O | > 100 | –
21 | CN(C)CCCN=c1c2ccccc2n(O)c2ccccc12 | > 100 | –
22 | N#Cc1ccccc1CSc1ncnc2nc[nH]c12 | – | 74.3
23 | C=CCCC1(CC(Sc2ccccc2)P(=O)(c2ccccc2)c2ccccc2)OCCO1 (stereo not given) | > 10 | –
24 | CCOC(=O)c1cc2c3ccn(Cc4ccccc4)c3c3c(C)[nH]oc3c2n1 | > 100 | –
25 | Cc1ccc2c3c1O[C@H]1c4[nH]c5ccccc5c4C[C@@]4(O)[C@@H](C2)N(CC2CC2)CC[C@]314 | 27.8 | –
26 | Nc1ccc(Cc2c(N)[nH]c(=O)[nH]c2=O)cc1 | > 100 | –
27 | O=C1c2ccccc2C(=O)N1CCCCNOCCCN1C(=O)c2ccccc2C1=O | > 100 | –

The compounds below were run on SK-OV-3 ovarian (assay: NCI anticancer screen, dose series, 48 h).

Row | Compound | TGI [µM]
28 | CN(C)CCCN=c1c2ccccc2n(O)c2ccccc12 | > 100
29 | C=CCCC1(CC(Sc2ccccc2)P(=O)(c2ccccc2)c2ccccc2)OCCO1 (stereo not given) | > 10
30 | Cc1ccc2c3c1O[C@H]1c4[nH]c5ccccc5c4C[C@@]4(O)[C@@H](C2)N(CC2CC2)CC[C@]314 | 31.5
31 | Nc1ccc(Cc2c(N)[nH]c(=O)[nH]c2=O)cc1 | > 100
32 | O=C1c2ccccc2C(=O)N1CCCCNOCCCN1C(=O)c2ccccc2C1=O | > 100

The compounds below were run on SNB-19 CNS (assay: NCI anticancer screen, dose series, 48 h).

Row | Compound | TGI [µM]
33 | CCOC(=O)Cn1c(=O)ccn(COCCO)c1=O | > 100
34 | C=CCCC1(CC(Sc2ccccc2)P(=O)(c2ccccc2)c2ccccc2)OCCO1 (stereo not given) | > 10
35 | CCOC(=O)c1cc2c3ccn(Cc4ccccc4)c3c3c(C)[nH]oc3c2n1 | > 100
36 | Cc1ccc2c3c1O[C@H]1c4[nH]c5ccccc5c4C[C@@]4(O)[C@@H](C2)N(CC2CC2)CC[C@]314 | 32.2
37 | Nc1ccc(Cc2c(N)[nH]c(=O)[nH]c2=O)cc1 | > 100
38 | O=C1c2ccccc2C(=O)N1CCCCNOCCCN1C(=O)c2ccccc2C1=O | > 100

What follows are compounds tested on SR leukemia (assay: NCI anticancer screen, dose series, 48 h).

Row | Compound | TGI [µM]
39 | C=CCCC1(CC(Sc2ccccc2)P(=O)(c2ccccc2)c2ccccc2)OCCO1 (stereo not given) | > 10
40 | CCOC(=O)c1cc2c3ccn(Cc4ccccc4)c3c3c(C)[nH]oc3c2n1 | > 100
41 | Cc1ccc2c3c1O[C@H]1c4[nH]c5ccccc5c4C[C@@]4(O)[C@@H](C2)N(CC2CC2)CC[C@]314 | 46.8
42 | O=C1c2ccccc2C(=O)N1CCCCNOCCCN1C(=O)c2ccccc2C1=O | > 100

The compounds below were run on DU-145 prostate (assay: NCI anticancer screen, dose series, 48 h).

Row | Compound | TGI [µM]
43 | CCOC(=O)Cn1c(=O)ccn(COCCO)c1=O | > 100
44 | CN(C)CCCN=c1c2ccccc2n(O)c2ccccc12 | > 100
45 | C=CCCC1(CC(Sc2ccccc2)P(=O)(c2ccccc2)c2ccccc2)OCCO1 (stereo not given) | > 10
46 | CCOC(=O)c1cc2c3ccn(Cc4ccccc4)c3c3c(C)[nH]oc3c2n1 | > 100
47 | Cc1ccc2c3c1O[C@H]1c4[nH]c5ccccc5c4C[C@@]4(O)[C@@H](C2)N(CC2CC2)CC[C@]314 | 30.5
48 | Nc1ccc(Cc2c(N)[nH]c(=O)[nH]c2=O)cc1 | > 100
49 | O=C1c2ccccc2C(=O)N1CCCCNOCCCN1C(=O)c2ccccc2C1=O | > 100

These compounds were tested on MOLT-4 leukemia (assay: NCI anticancer screen, dose series, 48 h).

Row | Compound | TGI [µM] | GI50 [µM]
50 | CCOC(=O)Cn1c(=O)ccn(COCCO)c1=O | > 100 | –
51 | CN(C)CCCN=c1c2ccccc2n(O)c2ccccc12 | > 100 | –
52 | N#Cc1ccccc1CSc1ncnc2nc[nH]c12 | – | 80.3
53 | C=CCCC1(CC(Sc2ccccc2)P(=O)(c2ccccc2)c2ccccc2)OCCO1 (stereo not given) | > 10 | –
54 | CCOC(=O)c1cc2c3ccn(Cc4ccccc4)c3c3c(C)[nH]oc3c2n1 | > 100 | –
55 | Cc1ccc2c3c1O[C@H]1c4[nH]c5ccccc5c4C[C@@]4(O)[C@@H](C2)N(CC2CC2)CC[C@]314 | 32.9 | –
56 | Nc1ccc(Cc2c(N)[nH]c(=O)[nH]c2=O)cc1 | > 100 | –
57 | O=C1c2ccccc2C(=O)N1CCCCNOCCCN1C(=O)c2ccccc2C1=O | > 100 | –

The compounds below were run on HCT-15 colon (assay: NCI anticancer screen, dose series, 48 h).

Row | Compound | TGI [µM]
58 | CCOC(=O)Cn1c(=O)ccn(COCCO)c1=O | > 100
59 | CN(C)CCCN=c1c2ccccc2n(O)c2ccccc12 | > 100
60 | C=CCCC1(CC(Sc2ccccc2)P(=O)(c2ccccc2)c2ccccc2)OCCO1 (stereo not given) | > 10
61 | CCOC(=O)c1cc2c3ccn(Cc4ccccc4)c3c3c(C)[nH]oc3c2n1 | > 100
62 | Cc1ccc2c3c1O[C@H]1c4[nH]c5ccccc5c4C[C@@]4(O)[C@@H](C2)N(CC2CC2)CC[C@]314 | 38.1
63 | Nc1ccc(Cc2c(N)[nH]c(=O)[nH]c2=O)cc1 | > 100
64 | O=C1c2ccccc2C(=O)N1CCCCNOCCCN1C(=O)c2ccccc2C1=O | > 100

What follows are compounds tested on RPMI-8226 leukemia (assay: NCI anticancer screen, dose series, 48 h).

Row | Compound | TGI [µM] | GI50 [µM]
65 | CCOC(=O)Cn1c(=O)ccn(COCCO)c1=O | > 100 | –
66 | CN(C)CCCN=c1c2ccccc2n(O)c2ccccc12 | > 100 | –
67 | N#Cc1ccccc1CSc1ncnc2nc[nH]c12 | – | 53.1
68 | C=CCCC1(CC(Sc2ccccc2)P(=O)(c2ccccc2)c2ccccc2)OCCO1 (stereo not given) | > 10 | –
69 | CCOC(=O)c1cc2c3ccn(Cc4ccccc4)c3c3c(C)[nH]oc3c2n1 | > 100 | –
70 | Cc1ccc2c3c1O[C@H]1c4[nH]c5ccccc5c4C[C@@]4(O)[C@@H](C2)N(CC2CC2)CC[C@]314 | 29.4 | –
71 | Nc1ccc(Cc2c(N)[nH]c(=O)[nH]c2=O)cc1 | > 100 | –
72 | O=C1c2ccccc2C(=O)N1CCCCNOCCCN1C(=O)c2ccccc2C1=O | > 100 | –

What follows are compounds tested on EKVX NSCLC (assay: NCI anticancer screen, dose series, 48 h).

Row | Compound | TGI [µM] | GI50 [µM]
73 | CCOC(=O)Cn1c(=O)ccn(COCCO)c1=O | > 100 | –
74 | CN(C)CCCN=c1c2ccccc2n(O)c2ccccc12 | > 100 | –
75 | N#Cc1ccccc1CSc1ncnc2nc[nH]c12 | – | 90.1
76 | C=CCCC1(CC(Sc2ccccc2)P(=O)(c2ccccc2)c2ccccc2)OCCO1 (stereo not given) | > 10 | –
77 | CCOC(=O)c1cc2c3ccn(Cc4ccccc4)c3c3c(C)[nH]oc3c2n1 | > 100 | –
78 | Cc1ccc2c3c1O[C@H]1c4[nH]c5ccccc5c4C[C@@]4(O)[C@@H](C2)N(CC2CC2)CC[C@]314 | 32.9 | –
79 | O=C1c2ccccc2C(=O)N1CCCCNOCCCN1C(=O)c2ccccc2C1=O | > 100 | –

Each compound was assayed on SK-MEL-2 melanoma (assay: NCI anticancer screen, dose series, 48 h).

Row | Compound | TGI [µM]
80 | CCOC(=O)Cn1c(=O)ccn(COCCO)c1=O | > 100
81 | CN(C)CCCN=c1c2ccccc2n(O)c2ccccc12 | > 100
82 | C=CCCC1(CC(Sc2ccccc2)P(=O)(c2ccccc2)c2ccccc2)OCCO1 (stereo not given) | > 10
83 | CCOC(=O)c1cc2c3ccn(Cc4ccccc4)c3c3c(C)[nH]oc3c2n1 | > 100
84 | Cc1ccc2c3c1O[C@H]1c4[nH]c5ccccc5c4C[C@@]4(O)[C@@H](C2)N(CC2CC2)CC[C@]314 | 31.6
85 | Nc1ccc(Cc2c(N)[nH]c(=O)[nH]c2=O)cc1 | > 100

What follows are compounds tested on MDA-MB-435 (assay: NCI anticancer screen, dose series, 48 h).

Row | Compound | TGI [µM]
86 | CCOC(=O)Cn1c(=O)ccn(COCCO)c1=O | > 100
87 | CN(C)CCCN=c1c2ccccc2n(O)c2ccccc12 | > 100
88 | C=CCCC1(CC(Sc2ccccc2)P(=O)(c2ccccc2)c2ccccc2)OCCO1 (stereo not given) | > 10
89 | CCOC(=O)c1cc2c3ccn(Cc4ccccc4)c3c3c(C)[nH]oc3c2n1 | > 100
90 | Cc1ccc2c3c1O[C@H]1c4[nH]c5ccccc5c4C[C@@]4(O)[C@@H](C2)N(CC2CC2)CC[C@]314 | 26.8
91 | Nc1ccc(Cc2c(N)[nH]c(=O)[nH]c2=O)cc1 | > 100
92 | O=C1c2ccccc2C(=O)N1CCCCNOCCCN1C(=O)c2ccccc2C1=O | > 100

These compounds were tested on KM12 colon (assay: NCI anticancer screen, dose series, 48 h).

Row | Compound | TGI [µM]
93 | CCOC(=O)Cn1c(=O)ccn(COCCO)c1=O | > 100
94 | CN(C)CCCN=c1c2ccccc2n(O)c2ccccc12 | > 100
95 | C=CCCC1(CC(Sc2ccccc2)P(=O)(c2ccccc2)c2ccccc2)OCCO1 (stereo not given) | > 10
96 | CCOC(=O)c1cc2c3ccn(Cc4ccccc4)c3c3c(C)[nH]oc3c2n1 | > 100
97 | Cc1ccc2c3c1O[C@H]1c4[nH]c5ccccc5c4C[C@@]4(O)[C@@H](C2)N(CC2CC2)CC[C@]314 | 32.5
98 | O=C1c2ccccc2C(=O)N1CCCCNOCCCN1C(=O)c2ccccc2C1=O | > 100

Each compound was assayed on HT29 colon (assay: NCI anticancer screen, dose series, 48 h).

Row | Compound | TGI [µM]
99 | CCOC(=O)Cn1c(=O)ccn(COCCO)c1=O | > 100
100 | CN(C)CCCN=c1c2ccccc2n(O)c2ccccc12 | 28.8
